What is called viability is a read-out of living cells in per cent, often relative to untreated cells.

Where two headings read alike, the source gives them in different places.

A short description of series [1]: in vitro. Also on record: species or system HB2, CCD841. The following applies: human, hek293 cells.
Series [2] in a line: in vitro. The following applies: human, ccd841 cells. Also on record: species or system HB2, HEK293.
Series [3] in a line: in vitro. Also on record: species or system CCD841, HEK293. The following applies: human, hb2 cells, read-out: HB-2 Cells Viability (%).
The target in series [4] is T1, OTUB2 (OTUB2A) (Homo sapiens, UniProt Q96DC9).
T1 construct: full length residues 1-234, E. coli BL21(DE3)-R3, His tag removed by TEV, construct 27312 Da
T1 sequence (Q96DC9 1-234): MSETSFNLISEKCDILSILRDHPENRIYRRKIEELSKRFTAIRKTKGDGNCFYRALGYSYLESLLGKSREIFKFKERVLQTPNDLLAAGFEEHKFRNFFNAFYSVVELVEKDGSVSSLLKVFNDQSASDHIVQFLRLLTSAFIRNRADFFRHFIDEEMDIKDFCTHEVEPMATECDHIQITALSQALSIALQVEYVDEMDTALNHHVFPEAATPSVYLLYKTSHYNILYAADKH
Also on record: Intact protein LC/MS covalent labelling, fragments in pools of five, 200 uM each, 4 °C. The following applies: 24 h, 4 °C, pool of five; 200 µM; covalent. The method, then:
(§1) Incubations were performed at 200 μM for each compound and 2 μM of protein (10 μM for BSA) for 24 h at 4 °C with moderate shaking. Incubation buffers varied among proteins (PBS pH 7.4 for QSOX1 and BSA; 10 mM HEPES pH 7.5, 0.3 M NaCl, 0.5 mM TCEP for PCAF, UPS8, and NUDT7; […]; 10 mM Na2HPO4 pH 7.5 100 mM NaCl 5 mM β-mercaptoethanol for NV3CP; 20 mM Na phosphate pH 7.5 for NNMT; […]. The reaction was stopped by quenching with formic acid, 0.4% final concentration. Each protein was incubated with the electrophilic library in pools of five compounds per well. The pool’s composition maximized the difference in mass between fragments in the same well. Incubations were performed with each fragment at 200 μM, for 24 h at 4 °C, to allow the screening of proteins that are not stable for long time periods at higher temperatures. Following incubation, we used intact protein [compound left out] chromatography/mass spectrometry (LC/MS) to identify the fragments and quantify their labeling (Figure 3A). […] There was good agreement between the percent of labeling of NUDT7 by 100 random individual compounds and that obtained in pools of five (R^2=0.78; Figure S6 and Data set 2 in the Supporting Information).

In series [5] the target is T2, PCAF (Homo sapiens, UniProt Q92831).
T2 construct: gene KAT2B
T2 sequence (Q92831 whole entry): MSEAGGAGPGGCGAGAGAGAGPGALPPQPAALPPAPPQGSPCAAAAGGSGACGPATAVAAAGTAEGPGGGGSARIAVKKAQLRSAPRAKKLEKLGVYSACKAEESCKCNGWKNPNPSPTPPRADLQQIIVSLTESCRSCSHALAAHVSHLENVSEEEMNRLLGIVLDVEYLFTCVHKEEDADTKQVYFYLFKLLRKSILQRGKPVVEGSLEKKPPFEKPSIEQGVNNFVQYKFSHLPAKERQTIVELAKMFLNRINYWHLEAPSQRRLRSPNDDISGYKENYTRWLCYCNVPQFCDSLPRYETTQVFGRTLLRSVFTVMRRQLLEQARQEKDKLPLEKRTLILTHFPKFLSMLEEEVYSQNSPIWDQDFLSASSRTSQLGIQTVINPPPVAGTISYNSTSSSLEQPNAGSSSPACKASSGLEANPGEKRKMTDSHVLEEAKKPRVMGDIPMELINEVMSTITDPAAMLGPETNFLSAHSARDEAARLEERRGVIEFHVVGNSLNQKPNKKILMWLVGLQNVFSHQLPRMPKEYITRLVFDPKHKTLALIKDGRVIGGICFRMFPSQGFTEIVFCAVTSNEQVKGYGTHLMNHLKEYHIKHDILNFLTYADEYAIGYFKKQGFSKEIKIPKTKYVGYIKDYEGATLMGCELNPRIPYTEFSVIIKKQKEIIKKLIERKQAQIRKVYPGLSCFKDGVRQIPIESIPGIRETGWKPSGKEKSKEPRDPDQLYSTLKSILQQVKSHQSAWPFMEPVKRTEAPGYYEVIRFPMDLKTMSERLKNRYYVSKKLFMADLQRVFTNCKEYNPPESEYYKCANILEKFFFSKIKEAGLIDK
Also on record: Intact protein LC/MS covalent labelling, fragments in pools of five, 200 uM each, 4 °C. The following applies: 24 h, 4 °C, pool of five; 200 µM; covalent. As to the method: as §1

Series [6] addresses T3, BSA (Bos taurus, UniProt P02769).
T3 construct: gene ALB
Also on record: Intact protein LC/MS covalent labelling, fragments in pools of five, 200 uM each, 4 °C. The following applies: 24 h, 4 °C, pool of five; 200 µM; covalent. As to the method:
as §1

The target of series [7] is T4, NUDT7 (Homo sapiens, UniProt P0C024).
T4 construct: residues 14-235, E. coli, pNIC28-Bsa4, N-terminal His6 tag removed by TEV, construct 26672 Da
T4 sequence (P0C024 14-235): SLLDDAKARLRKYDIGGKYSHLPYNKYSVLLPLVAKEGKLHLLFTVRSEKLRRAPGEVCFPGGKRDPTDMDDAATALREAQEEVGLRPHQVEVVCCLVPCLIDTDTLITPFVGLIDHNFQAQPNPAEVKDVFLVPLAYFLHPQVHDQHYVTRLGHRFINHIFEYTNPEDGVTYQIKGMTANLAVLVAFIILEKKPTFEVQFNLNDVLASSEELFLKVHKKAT
Also on record: Intact protein LC/MS covalent labelling, fragments in pools of five, 200 uM each, 4 °C. The following applies: 24 h, 4 °C, pool of five; 200 µM; covalent. As to the method:
as §1

T3 sequence (P02769 whole entry): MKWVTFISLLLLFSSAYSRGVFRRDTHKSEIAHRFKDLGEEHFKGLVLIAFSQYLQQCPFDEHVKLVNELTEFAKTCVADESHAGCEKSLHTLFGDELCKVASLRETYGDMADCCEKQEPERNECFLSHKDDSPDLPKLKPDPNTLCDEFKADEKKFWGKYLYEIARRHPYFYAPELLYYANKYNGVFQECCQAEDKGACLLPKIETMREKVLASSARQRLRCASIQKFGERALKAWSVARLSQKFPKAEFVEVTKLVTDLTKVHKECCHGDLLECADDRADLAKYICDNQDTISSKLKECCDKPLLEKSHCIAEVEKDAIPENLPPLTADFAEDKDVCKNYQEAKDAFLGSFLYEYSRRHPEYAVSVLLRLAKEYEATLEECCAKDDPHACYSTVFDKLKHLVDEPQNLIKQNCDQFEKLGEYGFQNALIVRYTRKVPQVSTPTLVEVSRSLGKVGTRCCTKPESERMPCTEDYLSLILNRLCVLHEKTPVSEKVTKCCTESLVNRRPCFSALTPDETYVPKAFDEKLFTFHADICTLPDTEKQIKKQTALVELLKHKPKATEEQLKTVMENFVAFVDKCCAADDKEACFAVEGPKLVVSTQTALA

For the compound `Cl.O=C(CCl)N1CCN(Cc2cccs2)CC1` [PCM-0102243], the viability at 48 h, 10 µM in series [1] is 43.5%; in series [2], 77.1%; in series [3], 45.7%. The compound also gave an OTUB2 in series [4] of 0. Moreover, the PCAF in series [5] is given as 0. The BSA in series [6] is on record as 0. Further, the NUDT7 in series [7] came out at 0.08.

As for `O=C(CCl)Nc1nc(-c2ccc(F)c(F)c2)cs1` [PCM-0102244], the viability at 48 h, 10 µM is 0.9% in series [1], 76.5% in series [2] and 6.9% in series [3]. Further, the OTUB2 in series [4] amounted to 0.29. Moreover, in series [5], the PCAF was determined as 0. This compound also yielded a BSA in series [6] of 0.15. The compound also returned an NUDT7 in series [7] of 0.53.

`NC(=O)C1CN(C(=O)CCl)c2ccccc2O1` (centres unmarked) [PCM-0102245]: the viability at 48 h, 10 µM in series [1] was found to be 31.8%; in series [2], 60.8%; in series [3], 58.4%. In series [4], the OTUB2 is listed as 0.15. Besides, in series [5], the PCAF was 0. The compound also returned a BSA in series [6] of 0. Further, the NUDT7 in series [7] was found to be 0.12.

For `Cc1cc(C)c2nc(NC(=O)CCl)sc2c1` [PCM-0102246], the viability at 48 h, 10 µM was 67.3% in series [1], 79.8% in series [2] and 51.6% in series [3]. In series [4], this compound showed an OTUB2 of 0.14. Further, the PCAF in series [5] is given as 0. The same compound showed a BSA in series [6] of 0. In series [7], the NUDT7 is recorded as 0.83.

Consider `O=C(CCl)Nc1cc(F)ccc1C(=O)O` [PCM-0102247], for which the viability at 48 h, 10 µM in series [1] was determined as 97%; in series [2] it was 95.7%; in series [3], 106%. This compound had an OTUB2 in series [4] of 0. This compound gave a PCAF in series [5] of 0. The compound also displayed a BSA in series [6] of 0. In addition, the NUDT7 in series [7] turned out to be 0.

On to `Cc1ccc(C)c(-n2nc(C)cc2NC(=O)CCl)c1` [PCM-0102249], for which the viability at 48 h, 10 µM in series [1] stood at 25.4%; in series [2] it was 64%; in series [3] it was 45.3%. The same compound came in with an OTUB2 in series [4] of 0.43. Besides, in series [5], the PCAF stood at 0. This compound yielded a BSA in series [6] of 0. Besides, the NUDT7 in series [7] came to 0.

Turning to `CC1CCC(C#N)(N(C)C(=O)CCl)CC1` (centres unmarked) [PCM-0102251], the viability at 48 h, 10 µM in series [1] is 3.9%; in series [2], 55.4%; in series [3], 16.5%. The same compound yielded an OTUB2 in series [4] of 0. Moreover, the PCAF in series [5] is 0. Also, the BSA in series [6] turned out to be 0. Further, the NUDT7 in series [7] was found to be 0.05.

As to `COc1ccc(N2CCN(C(=O)CCl)CC2)cc1` [PCM-0102254], the viability at 48 h, 10 µM was 42.2% in series [1], 84.2% in series [2] and 33.8% in series [3]. This compound showed an OTUB2 in series [4] of 0. In series [5], this compound had a PCAF of 0. The compound also came in with a BSA in series [6] of 0. Moreover, in series [7], the NUDT7 is on record as 0.

`CC(NC(=O)CCl)c1ccccc1Br` (centres unmarked) [PCM-0102256]: the viability at 48 h, 10 µM came to 27.3% in series [1], 67.3% in series [2] and 39% in series [3]. In addition, in series [4], the OTUB2 came out at 0.29. This compound came in with a PCAF in series [5] of 0. In addition, in series [6], the BSA amounted to 0. This compound displayed an NUDT7 in series [7] of 0.19.

Take `O=C(CCl)N1CCN(C(=O)Nc2ccccc2)CC1` [PCM-0102257]: the values for the viability at 48 h, 10 µM in series [1], in series [2] and in series [3] were 8.5%, 56.6% and 34.8%, respectively. This compound also came in with an OTUB2 in series [4] of 0. Moreover, in series [5], the PCAF stood at 0. The BSA in series [6] stood at 0. The same compound registered an NUDT7 in series [7] of 0.07.

`O=C(CCl)Nc1cc(Cl)ccc1-n1cncn1` [PCM-0102258]: the viability at 48 h, 10 µM in series [1] stood at 11.7%; in series [2], 51.7%; in series [3] it was 53.8%. In series [4], this compound returned an OTUB2 of 0. The PCAF in series [5] came out at 0. Also, the BSA in series [6] amounted to 0. For the same compound, the NUDT7 in series [7] is given as 0.21.

`CN(CC(=O)NC(C)(C)C)C(=O)CCl` [PCM-0102259]: the viability at 48 h, 10 µM amounted to 69% in series [1], 85.2% in series [2] and 97.2% in series [3]. The compound further had an OTUB2 in series [4] of 0. Besides, the PCAF in series [5] is on record as 0. In addition, in series [6], the BSA was found to be 0. Further, the NUDT7 in series [7] is 0.

`CC(C)(C)C1CCc2sc(C(=O)NNC(=O)CCl)cc2C1` (centres unmarked) [PCM-0102260]: the viability at 48 h, 10 µM came to 10.2% in series [1], 29.7% in series [2] and 64% in series [3]. This compound also showed an OTUB2 in series [4] of 0.67. In addition, the PCAF in series [5] came out at 0. This compound showed a BSA in series [6] of 0. This compound displayed an NUDT7 in series [7] of 0.

`Cc1c(C#N)c(NC(=O)CCl)n(-c2ccccc2)c1C` [PCM-0102261]: the results for the viability at 48 h, 10 µM in series [1], in series [2] and in series [3] were 7.8%, 75.1% and 42.5%, respectively. For the same compound, the OTUB2 in series [4] came to 0.09. In series [5], this compound displayed a PCAF of 0. The same compound had a BSA in series [6] of 0. Moreover, the NUDT7 in series [7] turned out to be 0.3.

As for `Cc1nc(-c2cccc(NC(=O)CCl)c2)cs1` [PCM-0102262], the viability at 48 h, 10 µM stood at 1.7% in series [1], 29.7% in series [2] and 5.4% in series [3]. In series [4], this compound registered an OTUB2 of 0.63. The same compound returned a PCAF in series [5] of 0. Moreover, in series [6], the BSA worked out at 0. The compound also came in with an NUDT7 in series [7] of 0.

For the compound `CC(C)C(C#N)N1CCN(C(=O)CCl)CC1` (centres unmarked) [PCM-0102263], the viability at 48 h, 10 µM in series [1] was 13.9%; in series [2], 65.2%; in series [3] it was 64%. For the same compound, the OTUB2 in series [4] is 0.31. This compound gave a PCAF in series [5] of 0. The BSA in series [6] is listed as 0. The compound further registered an NUDT7 in series [7] of 0.17.

Turning to `Cc1sc2nc(-c3cccc(NC(=O)CCl)c3)[nH]c(=O)c2c1C` [PCM-0102264], the viability at 48 h, 10 µM was 61.2% in series [1], 92.8% in series [2] and 64.6% in series [3]. In series [4], this compound had an OTUB2 of 0.13. The compound also came in with a PCAF in series [5] of 0. In series [6], this compound showed a BSA of 0. Besides, the NUDT7 in series [7] came out at 0.

With `Cc1csc(N(C(=O)CCl)c2ccccc2)n1` [PCM-0102265], the viability at 48 h, 10 µM in series [1] worked out at 48.6%; in series [2] it was 36.8%; in series [3], 12.6%. In addition, the OTUB2 in series [4] is reported as 0.06. Besides, the PCAF in series [5] was 0. In addition, the BSA in series [6] is recorded as 0. This compound came in with an NUDT7 in series [7] of 0.19.

In the case of `O=C(CCl)N1c2ccccc2OCC1c1ccccc1` (centres unmarked) [PCM-0102266], the viability at 48 h, 10 µM in series [1] worked out at 52.1%; in series [2], 57.5%; in series [3] it was 56.8%. In addition, the OTUB2 in series [4] was determined as 0. In series [5], this compound had a PCAF of 0. In series [6], the BSA was 0. In series [7], the NUDT7 is on record as 0.11.

Regarding `Cc1ccc(C(C)NC(=O)CCl)cc1C` (centres unmarked) [PCM-0102270], the figures for the viability at 48 h, 10 µM in series [1], in series [2] and in series [3] were 67.9%, 78.1% and 80.2%, respectively. The same compound displayed an OTUB2 in series [4] of 0.51. The compound also came in with a PCAF in series [5] of 0. The compound further returned a BSA in series [6] of 0. For the same compound, the NUDT7 in series [7] came to 0.

The values above are taken from paper PMC6556873, “Rapid Covalent-Probe Discovery by Electrophile-Fragment Screening” (Journal of the American Chemical Society, 2019).
